Laboratory results taken from ChEMBL document CHEMBL4002621, “Novel 12N-substituted matrinanes as potential anti-coxsackievirus agents” (Bioorg Med Chem Lett, 2017).

How the values were obtained:
[1] = Cytotoxicity against African green monkey Vero cells assessed as growth inhibition after 48 hrs; format: cell-based; details: chlorocebus sabaeus, read-out: TC50
[2] = Selectivity index, ratio of TC50 for African green monkey Vero cells to IC50 for Coxsackievirus B6 (strain Schmitt) infected in African green monkey Vero cells; format: toxicity; details: read-out: Selectivity Index
[3] = Selectivity index, ratio of TC50 for African green monkey Vero cells to IC50 for Coxsackievirus B1 Conn-5 infected in African green monkey Vero cells; format: toxicity; details: read-out: Selectivity Index
[4] = Selectivity index, ratio of TC50 for African green monkey Vero cells to IC50 for Coxsackievirus B5 Faulkner infected in African green monkey Vero cells; format: toxicity; details: read-out: Selectivity Index
[5] = Selectivity index, ratio of TC50 for African green monkey Vero cells to IC50 for Coxsackievirus B3 (strain Nancy) infected in African green monkey Vero cells; format: toxicity; details: read-out: Selectivity Index
[6] = system: Coxsackievirus A16; assay: Antiviral activity against Coxsackievirus A16 shzh05-1 infected in African green monkey Vero cells assessed as reduction in viral-induced cytopathic effect by Reed and Muench analysis; format: functional; details: Enterovirus A, shzh05-1, Vero
[7] = Selectivity index, ratio of TC50 for African green monkey Vero cells to IC50 for Coxsackievirus B2 (strain Ohio-1) infected in African green monkey Vero cells; format: toxicity; details: read-out: Selectivity Index
[8] = system: Coxsackievirus B1; assay: Antiviral activity against Coxsackievirus B1 Conn-5 infected in African green monkey Vero cells assessed as reduction in viral-induced cytopathic effect by Reed and Muench analysis; format: functional; details: Enterovirus B, Conn-5, Vero
[9] = Acute toxicity in po dosed Kunming mouse assessed as effect on body weight and survival administered as single dose measured up to 7 days; format: organism-based; details: in vivo
[10] = Antiviral activity against Coxsackievirus B2 (strain Ohio-1) infected in African green monkey Vero cells assessed as reduction in viral-induced cytopathic effect by Reed and Muench analysis; format: functional; details: Enterovirus B
[11] = system: Coxsackievirus B5; assay: Antiviral activity against Coxsackievirus B5 Faulkner infected in African green monkey Vero cells assessed as reduction in viral-induced cytopathic effect by Reed and Muench analysis; format: functional; details: Enterovirus B
[12] = Selectivity index, ratio of TC50 for African green monkey Vero cells to IC50 for Coxsackievirus B4 J.V.B infected in African green monkey Vero cells; format: toxicity; details: read-out: Selectivity Index
[13] = Selectivity index, ratio of TC50 for African green monkey Vero cells to IC50 for Coxsackievirus A16 shzh05-1 infected in African green monkey Vero cells; format: toxicity; details: read-out: Selectivity Index
[14] = system: Coxsackievirus B4; assay: Antiviral activity against Coxsackievirus B4 J.V.B infected in African green monkey Vero cells assessed as reduction in viral-induced cytopathic effect by Reed and Muench analysis; format: functional; details: Enterovirus B
[15] = Antiviral activity against Coxsackievirus B6 (strain Schmitt) infected in African green monkey Vero cells assessed as reduction in viral-induced cytopathic effect by Reed and Muench analysis; format: functional; details: Enterovirus B
[16] = system: Coxsackievirus B3; assay: Antiviral activity against Coxsackievirus B3 (strain Nancy) infected in African green monkey Vero cells assessed as reduction in viral-induced cytopathic effect by Reed and Muench analysis; format: functional; details: Enterovirus B

Row | SMILES | CC50 at 48 h [1] [µM] | selectivity ratio [5] | IC50 [16] [µM] | also measured
1 | CCCC[C@@H]1[C@H]2CCCN3CCC[C@@H](CN1C(=O)c1cc(OC)c(OC)c(OC)c1)[C@@H]23 | 115 to 200 | > 50.6 | 3.95 | selectivity ratio [2]: 33.7; selectivity ratio [3]: 23.4; selectivity ratio [4]: 15.6; IC50 [6]: 6.17 µM; selectivity ratio [7]: 33.7; IC50 [8]: 4.94 µM; LD50 at 168 h [9]: 327 mg/kg; IC50 [10]: 3.43 µM; IC50 [11]: 7.41 µM; selectivity ratio [12]: 23.4; selectivity ratio [13]: 18.7; IC50 [14]: 4.94 µM; IC50 [15]: 3.43 µM
2 | CCCC[C@@H]1[C@H]2CCCN3CCC[C@@H](CN1S(=O)(=O)c1ccsc1C(=O)OC)[C@@H]23 | > 200 | > 40.5 | 4.94 | 
3 | CCCC[C@@H]1[C@H]2CCCN3CCC[C@@H](CN1S(=O)(=O)c1cccc(C(N)=O)c1)[C@@H]23 | 230 | 30.7 | 7.47 | 
4 | CCCC[C@@H]1[C@H]2CCCN3CCC[C@@H](CN1S(=O)(=O)c1sc(NC(C)=O)nc1C)[C@@H]23 | 96.2 | 46.7 | 2.06 | 
5 | CCCC[C@@H]1[C@H]2CCCN3CCC[C@@H](CN1C(=O)CC(=O)OC)[C@@H]23 | > 200 | > 4.33 | 46.2 | 
6 | CCCC[C@@H]1[C@H]2CCCN3CCC[C@@H](CN1C(=O)c1ccccc1OC(C)=O)[C@@H]23 | 241 | 17.1 | 14.1 | 
7 | CCCC[C@@H]1[C@H]2CCCN3CCC[C@@H](CN1C(=O)CCC)[C@@H]23 | 200 | 6.24 | 32 | 
8 | CCCC[C@@H]1[C@H]2CCCN3CCC[C@@H](CN1Cc1ccc(C(=O)OC)cc1)[C@@H]23 | 96.2 | 15.6 | 6.17 | 
9 | CCCC[C@@H]1[C@H]2CCCN3CCC[C@@H](CN1C(=O)N1CCN(S(C)(=O)=O)C1=O)[C@@H]23 | > 469 | > 9 | 52.1 | 
10 | CCCC[C@@H]1[C@H]2CCCN3CCC[C@@H](CN1S(=O)(=O)c1ccsc1C(=O)O)[C@@H]23 | > 200 | > 13.3 | 15 | 
11 | CCCC[C@@H]1[C@H]2CCCN3CCC[C@@H](CN1S(=O)(=O)c1cccnc1)[C@@H]23 | 200 to 592 | > 148 | 3.99 | selectivity ratio [2]: > 58.1; selectivity ratio [3]: > 99; selectivity ratio [4]: > 58.3; IC50 [6]: 7.41 µM; selectivity ratio [7]: > 59.7; IC50 [8]: 2.02 µM; LD50 at 168 h [9]: 330 mg/kg; IC50 [10]: 3.35 µM; IC50 [11]: 3.43 µM; selectivity ratio [12]: > 58.3; selectivity ratio [13]: > 27; IC50 [14]: 3.43 µM; IC50 [15]: 3.43 µM
12 | CCCC[C@@H]1[C@H]2CCCN3CCC[C@@H](CN1C(=O)c1c(C)noc1C)[C@@H]23 | > 556 | > 81 | 6.87 | 
13 | CCCC[C@@H]1[C@H]2CCCN3CCC[C@@H](CN1C(=O)c1ccccc1O)[C@@H]23 | 324 |  | > 62.3 | 
14 | CCCC[C@@H]1[C@H]2CCCN3CCC[C@@H](CN1S(=O)(=O)c1ccccc1C(N)=O)[C@@H]23 | 276 | 11.8 | 23.3 | 
15 | CCCC[C@@H]1[C@H]2CCCN3CCC[C@@H](CN1S(=O)(=O)c1cn(C)cn1)[C@@H]23 | > 200 |  | > 66.7 | 
16 | CCCC[C@@H]1[C@H]2CCCN3CCC[C@@H](CN1S(=O)(=O)c1sc(N)nc1C)[C@@H]23 | 233 |  | > 53.8 | 
17 | CCCC[C@@H]1[C@H]2CCCN3CCC[C@@H](CN1S(=O)(=O)c1cccc(C#N)c1)[C@@H]23 | 183 | 146 | 1.26 | 
18 | CCCC[C@@H]1[C@H]2CCCN3CCC[C@@H](CN1Cc1ccccc1)[C@@H]23 | 96.2 |  | > 22.2 | 
19 | CCCC[C@@H]1[C@H]2CCCN3CCC[C@@H](CN1C(=O)CCC(=O)OC)[C@@H]23 | > 200 | > 18.1 | 11.1 | 
20 | CCCC[C@@H]1[C@H]2CCCN3CCC[C@@H](CN1S(=O)(=O)c1ccc(C(N)=O)cc1)[C@@H]23 | 331 | 2.68 | 124 | 
21 | CCCC[C@@H]1[C@H]2CCCN3CCC[C@@H](CN1S(=O)(=O)c1ccc4oc(=O)ccc4c1)[C@@H]23 | 180 | 56 | 3.21 | 
22 | CCCC[C@@H]1[C@H]2CCCN3CCC[C@@H](CN1S(=O)(=O)c1cccs1)[C@@H]23 | 251 | 13 | 19.4 | 
23 | CCCC[C@@H]1[C@H]2CCCN3CCC[C@@H](CN1C(=O)c1ccc(OC)cc1)[C@@H]23 | 116 | 18.7 | 6.17 | 
24 | CCCC[C@@H]1[C@H]2CCCN3CCC[C@@H](CN1S(=O)(=O)CCN)[C@@H]23 | 280 |  | > 64.7 | 
25 | NC(=O)c1ncn([C@@H]2O[C@H](CO)[C@@H](O)[C@H]2O)n1 [RIBAVIRIN] | 6360 to 40900 | 16.8 | 379 | selectivity ratio [2]: > 19.6; selectivity ratio [3]: > 17.2; selectivity ratio [4]: > 12.3; IC50 [6]: 9620 µM; IC50 [10]: > 40900 µM; selectivity ratio [13]: > 4.3; IC50 [14]: > 40900 µM
